According to US12421254B2, “KRAS modulators and uses thereof” (Quanta Therapeutics, Inc., priority 2023, dated 2025):

How the values were obtained:
[1] = system: phospho-ERK in SW620 (KRAS-G12V) cells; assay: pERK In Cell Western (ICW) assay (Method B), SW620; type: cell-based; settings: Homo sapiens, SW-620, 3 h, Table 4
Description: pERK ICW is a high throughput screening assay to evaluate the cellular potency of mutant KRAS small molecule inhibitors. KRAS mutant cell lines AGS, GP2D (KRAS-G12D) as well as SW620 (KRAS-G12V) were purchased from ATCC and maintained respectively in RPMI/DMEM/RPMI medium supplemented with 10% fetal bovine serum.
Cells grown in exponential phase were trypsinized, resuspended in fresh media, and viable cells were counted using a cell counter with Trypan Blue (BioRad TC20). Cells were seeded into 384-well plate (Greiner 781091) at density of 5,000 cells/well for AGS and 10,000 cells/well for GP2D/SW620 and allowed to grow overnight in a 37° C. CO2 incubator. The next day, compounds were dispensed into wells with a ½ log, 9-point serial dilution using a Tecan D300e dispenser and incubated for 3 hours in a 37° C. CO2 incubator. Cells were then fixed with paraformaldehyde (Electron Microscopy Sciences, 15710, 4% final concentration) for 30 min, permeabilized with wash buffer (1×PBS+0.1% Triton X-100) for 30 min and blocked with Odyssey blocking buffer (Li—COR 927-70001) for 1 hour, all at room temperature (RT). Phospho-ERK antibody (CST 4370L) was diluted 1:500 in Odyssey T20 (PBS) antibody diluent (Li—COR 927-75001) and incubated with cells overnight at 4° C. The next day, plates were washed 5× with wash buffer, incubated with IRDye 800 CW, Goat anti-Rabbit secondary antibody (Li—COR 926-32211, 1:800) and DRAQ5 (CST 4084L, 1:5,000) diluted in Odyssey T20 (PBS) antibody diluent for 1 hour, washed 5×, and imaged on an Odyssey CLx imaging system.
For data analysis, signal intensities from 800 (phosphor-ERK) and 700 (DRAQ5) channels were extracted, and phospho-ERK signals were normalized to DRAQ5 signals for each well and percent of blank control values were computed. Data were then imported into Graphpad Prism to compute half-maximal inhibitory concentrations (IC50) using a 4-parameter variable slope model. Z-factor for each plate was computed from signals derived from wells treated with either DMSO or 5 μM of control compound. AGS pERK ICW (Method B) IC50 (uM) values of selected compounds are depicted in Table 2 with compounds having a value ≥0.001 uM to 0.01 uM as ++++; ≥0.01 uM to 0.1 uM as +++; ≥0.1 uM to 1 uM as ++; ≥1 uM to 10 uM as + and ≥10 uM as NA.

[2] = biological target: GST-tagged KRAS-G12V (2-169) (Homo sapiens, UniProt P01116, G12V); assay: Nucleotide exchange assay (NEA), SOS-mediated, HTRF, KRAS G12V; type: biochemical; settings: Table 4; IC50 extracted at 90 min; 80 nM SOS
Sequence of GST-tagged KRAS-G12V (2-169) (P01116 2-169 isoform P01116-2 G12V): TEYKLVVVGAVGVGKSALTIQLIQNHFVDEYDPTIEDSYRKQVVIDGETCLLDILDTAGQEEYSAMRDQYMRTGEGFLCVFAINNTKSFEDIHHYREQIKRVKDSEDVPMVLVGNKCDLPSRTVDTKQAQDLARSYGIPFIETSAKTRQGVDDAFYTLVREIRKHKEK
Summary of the method: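 Exchange onto fluorescent GTP-DY-647P1 (150 nM final) catalysed by 80 nM SOS1cat was followed by Tb-anti-GST HTRF at RT for up to 90 min, after 1 h compound pre-incubation with 0.25 nM GST-tagged KRAS-G12V (2-169), pH 7.3. DMSO = 0%, no-SOS blank = 100%; 4-parameter IC50 taken at 90 min.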

[3] = biological target: GST-tagged KRAS-G12D (2-169) (Homo sapiens, UniProt P01116, G12D); assay: Nucleotide exchange assay (NEA), SOS-mediated, HTRF, KRAS G12D; type: biochemical; settings: Table 4; IC50 extracted at 30 min; 20 nM SOScat; read-out: NEA G12D IC50
Sequence of GST-tagged KRAS-G12D (2-169) (P01116 2-169 isoform P01116-2 G12D): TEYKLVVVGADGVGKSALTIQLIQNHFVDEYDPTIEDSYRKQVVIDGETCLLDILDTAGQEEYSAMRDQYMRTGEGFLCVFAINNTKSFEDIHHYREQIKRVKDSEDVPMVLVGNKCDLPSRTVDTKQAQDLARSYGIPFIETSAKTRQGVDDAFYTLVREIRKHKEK
Summary of the method: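 SOS1cat-driven loading of fluorescent GTP-DY-647P1 (150 nM) onto GST-KRAS-G12D (2-169, 0.25 nM) read by time-resolved FRET; SOScat 20 nM, compound preincubated with KRAS 1 h at RT. Signal blanked to no-SOS reactions, normalized to DMSO; IC50 fitted from the 30-min read.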

## N#Cc1c(N)sc2c1C1(CN(c3nc(OC[C@@]45CCCN4C[C@H](F)C5)nc(N(CC(=O)O)C4(C#N)CC4)n3)C1)SC2 [Compound 259, 2-[[4-(2-amino-3-cyano-spiro[6H-thieno[3,4-b]thiophene-4,3′-azetidine]-1′-yl)-6-[[(2R,8S)-2-fluoro-1,2,3,5,6,7-hexahydropyrrolizin-8-yl]methoxy]-1,3,5-triazin-2-yl]-(1-cyanocyclopropyl)amino]acetic acid]
[1]
  IC50: 1000 to 20000 nM

## C[C@]1(O)C[C@H](O)CN(c2nc(OC[C@@]34CCCN3C[C@H](F)C4)nc(N3CC4(CCc5sc(N)c(C#N)c54)C3)n2)C1 [Compound 75, 2-amino-1′-[4-[(3S,5S)-3,5-dihydroxy-3-methyl-1-piperidyl]-6-[[(2R,8S)-2-fluoro-1,2,3,5,6,7-hexahydropyrrolizin-8-yl]methoxy]-1,3,5-triazin-2-yl]spiro[5,6-dihydrocyclopenta[b]thiophene-4,3′-azetidine]-3-carbonitrile]
[2]
  IC50: 100 to 1000 nM
[3]
  IC50: 1000 to 20000 nM

## C[C@H](c1ccc(P(C)(C)=O)nc1N)N(C)c1nc(OC[C@@]23CCCN2C[C@H](F)C3)nc(N2CC3(C2)SCc2sc(N)c(C#N)c23)n1 [Compound 232, 2-amino-1′-[4-[1-(2-amino-6-dimethylphosphoryl-3-pyridyl)ethyl-methyl-amino]-6-[[(2R,8S)-2-fluoro-1,2,3,5,6,7-hexahydropyrrolizin-8-yl]methoxy]-1,3,5-triazin-2-yl]spiro[6H-thieno[3,4-b]thiophene-4,3′-azetidine]-3-carbonitrile]
[2]
  IC50: 100 to 1000 nM
[3]
  IC50: 1000 to 20000 nM

## CC(c1cccnc1N)N(C)c1nc(OC[C@@H]2CCC(=O)N2)nc(N2CC3(CCc4sc(N)c(C#N)c43)C2)n1 (stereo partly drawn) [Compound 112, 2-amino-1′-[4-[1-(2-amino-3-pyridyl)ethyl-methyl-amino]-6-[[(2S)-5-oxopyrrolidin-2-yl]methoxy]-1,3,5-triazin-2-yl]spiro[5,6-dihydrocyclopenta[b]thiophene-4,3′-azetidine]-3-carbonitrile]
[2]
  IC50: 100 to 1000 nM
[3]
  IC50: 1000 to 20000 nM

## CC(c1nccnc1N)N(C)c1nc(OC[C@@]23CCCN2C[C@H](F)C3)nc(N2CC3(CCc4sc(N)c(C#N)c43)C2)n1 (single isomer, unassigned) [Compound 116B, 2-amino-1′-[4-[[(1*)-1-(3-aminopyrazin-2-yl)ethyl]-methyl-amino]-6-[[(2R,8S)-2-fluoro-1,2,3,5,6,7-hexahydropyrrolizin-8-yl]methoxy]-1,3,5-triazin-2-yl]spiro[5,6-dihydrocyclopenta[b]thiophene-4,3′-azetidine]-3-carbonitrile]
[2]
  IC50: 10 to 100 nM
[3]
  IC50: 100 to 1000 nM

## CC(c1cncnc1O)N(C)c1nc(OC[C@@]23CCCN2C[C@H](F)C3)nc(N2CC3(CCc4sc(N)c(C#N)c43)C2)n1 (stereo partly drawn) [Compound 155, 2-amino-1′-[4-[[(2R,8S)-2-fluoro-1,2,3,5,6,7-hexahydropyrrolizin-8-yl]methoxy]-6-[1-(4-hydroxypyrimidin-5-yl)ethyl-methyl-amino]-1,3,5-triazin-2-yl]spiro[5,6-dihydrocyclopenta[b]thiophene-4,3′-azetidine]-3-carbonitrile]
[2]
  IC50: 1000 to 20000 nM
[3]
  IC50: 1000 to 20000 nM

## CN(Cc1cnsc1)c1nc(OC[C@@]23CCCN2C[C@H](F)C3)nc(N2CC3(CCc4sc(N)c(C#N)c43)C2)n1 [Compound 147, 2-amino-1′-[4-[[(2R,8S)-2-fluoro-1,2,3,5,6,7-hexahydropyrrolizin-8-yl]methoxy]-6-[isothiazol-4-ylmethyl(methyl)amino]-1,3,5-triazin-2-yl]spiro[5,6-dihydrocyclopenta[b]thiophene-4,3′-azetidine]-3-carbonitrile]
[2]
  IC50: 10 to 100 nM
[3]
  IC50: 100 to 1000 nM

## N#Cc1c(N)sc2c1C1(CN(c3nc(OC[C@@]45CCCN4C[C@H](F)C5)nc(N4C5CCC4CC(=O)C5)n3)C1)SC2 [Compound 273, 2-amino-1′-[4-[[(2R,8S)-2-fluoro-1,2,3,5,6,7-hexahydropyrrolizin-8-yl]methoxy]-6-(3-oxo-8-azabicyclo[3.2.1]octan-8-yl)-1,3,5-triazin-2-yl]spiro[6H-thieno[3,4-b]thiophene-4,3′-azetidine]-3-carbonitrile]
[2]
  IC50: 10 to 100 nM
[3]
  IC50: 100 to 1000 nM

## N#CCC12CC1CN(c1nc(OC[C@@]34CCCN3C[C@H](F)C4)nc(N3CC4(CCc5sc(N)c(C#N)c54)C3)n1)C2 (stereo partly drawn) [Compound 42, 2-amino-1′-[4-[1-(cyanomethyl)-3-azabicyclo[3.1.0]hexan-3-yl]-6-[[(2R,8S)-2-fluoro-1,2,3,5,6,7-hexahydropyrrolizin-8-yl]methoxy]-1,3,5-triazin-2-yl]spiro[5,6-dihydrocyclopenta[b]thiophene-4,3′-azetidine]-3-carbonitrile]
[2]
  IC50: 100 to 1000 nM
[3]
  IC50: 1000 to 20000 nM

## CC(=O)N1CCC(N(C)c2nc(OC[C@@]34CCCN3C[C@H](F)C4)nc(N3CC4(C3)SCc3sc(N)c(C#N)c34)n2)C1C (stereo partly drawn) [Compound 260, 1′-[4-[(1-acetyl-2-methyl-pyrrolidin-3-yl)-methyl-amino]-6-[[(2R,8S)-2-fluoro-1,2,3,5,6,7-hexahydropyrrolizin-8-yl]methoxy]-1,3,5-triazin-2-yl]-2-amino-spiro[6H-thieno[3,4-b]thiophene-4,3′-azetidine]-3-carbonitrile]
[2]
  IC50: 10 to 100 nM
[3]
  IC50: 100 to 1000 nM

## N#Cc1c(N)sc2c1C1(CN(c3nc(OC[C@@]45CCCN4C[C@H](F)C5)nc(N4C5CCC4CC(=O)NC5)n3)C1)SC2 (stereo partly drawn) [Compound 271, 2-amino-1′-[4-[[(2R,8S)-2-fluoro-1,2,3,5,6,7-hexahydropyrrolizin-8-yl]methoxy]-6-(4-oxo-3,9-diazabicyclo[4.2.1]nonan-9-yl)-1,3,5-triazin-2-yl]spiro[6H-thieno[3,4-b]thiophene-4,3′-azetidine]-3-carbonitrile]
[2]
  IC50: 100 to 1000 nM
[3]
  IC50: 1000 to 20000 nM

## CC(c1n[nH]cc1N)N(C)c1nc(OC[C@@]23CCCN2C[C@H](F)C3)nc(N2CC3(C2)SCc2sc(N)c(C#N)c23)n1 (stereo partly drawn) [Compound 192, 2-amino-1′-[4-[1-(4-amino-1H-pyrazol-3-yl)ethyl-methyl-amino]-6-[[(2R,8S)-2-fluoro-1,2,3,5,6,7-hexahydropyrrolizin-8-yl]methoxy]-1,3,5-triazin-2-yl]spiro[6H-thieno[2,3-c]thiophene-4,3′-azetidine]-3-carbonitrile]
[2]
  IC50: 10 to 100 nM
[3]
  IC50: 100 to 1000 nM

## N#Cc1c(N)sc2c1C1(CN(c3nc(OC[C@@]45CCCN4C[C@H](F)C5)nc(N(CCN)C4(C#N)CC4)n3)C1)SC2 [Compound 272, 2-amino-1′-[4-[2-aminoethyl-(1-cyanocyclopropyl)amino]-6-[[(2R,8S)-2-fluoro-1,2,3,5,6,7-hexahydropyrrolizin-8-yl]methoxy]-1,3,5-triazin-2-yl]spiro[6H-thieno[3,4-b]thiophene-4,3′-azetidine]-3-carbonitrile; formic acid]
[2]
  IC50: 10 to 100 nM
[3]
  IC50: < 10 nM

## C[C@H](c1ccc(P(C)(C)=O)cc1)N(C)c1nc(OC[C@@]23CCCN2C[C@H](F)C3)nc(N2CC3(C2)SCc2sc(N)c(C#N)c23)n1 [Compound 229, 2′-amino-1-(4-(((R)-1-(4-(dimethylphosphoryl)phenyl)ethyl)(methyl)amino)-6-(((2R,7aS)-2-fluorotetrahydro-1H-pyrrolizin-7a(5H)-yl)methoxy)-1,3,5-triazin-2-yl)-6′H-spiro[azetidine-3,4′-thieno[3,4-b]thiophene]-3′-carbonitrile]
[2]
  IC50: 1000 to 20000 nM
[3]
  IC50: 1000 to 20000 nM
